Measured values published in patent US20260216347A1, “Substituted Imidazo-Based Compounds as Ligand Directed Degraders of IRAK3” (Celgene Corporation, priority 2022, published 2026).

Target: T1, IRAK3-ePL (Homo sapiens, UniProt Q9Y616)
T1 construct: expressed in transfected cells; host or cells: 293T CRBN OE/GSPT1 G575N KI cells, lentiviral transduction, puromycin selected
Test: IRAK3-ePL overexpressing degradation assay (InCELL Hunter luminescence, dose response)
Type: cell-based
Conditions: for IRAK3 ePL degradation Ymin: lowest percentage of target protein remaining following compound treatment; for DC50: read-out: IRAK3 ePL degradation EC50
How it was run: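 Lenti-X 293T CRBN/GSPT1 G575N cells stably expressing IRAK3-ePL (5,000/well) treated overnight at 37° C with 10-point 3-fold dilutions from 10 μM, 0.2% DMSO. InCELL Hunter luminescence, background subtracted using Ataluren wells and normalized to DMSO; EC50 from four-parameter logistic fit.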

SMILES | IRAK3 ePL degradation Ymin | DC50
Cc1cccc(-c2cnc(Nc3cnn(C4CCN(CC(=O)N5CCN(c6ccc7c(c6)C(=O)N(C6CCC(=O)NC6=O)C7=O)CC5)CC4)c3)c3nccn23)c1 (centres unmarked) [Compound 1, 2-(2,6-dioxopiperidin-3-yl)-5-(4-(2-(4-(4-((5-(m-tolyl)imidazo[1,2-a]pyrazin-8-yl)amino)-1H-pyrazol-1-yl)piperidin-1-yl)acetyl)piperazin-1-yl)isoindoline-1,3-dione] | 31% | 39 nM
Cc1cc(-c2ccc(Nc3cnn(C4CCN(CCN5CCN(c6ccc(C7CCC(=O)NC7=O)cc6)CC5)CC4)c3)c3nccn23)c(F)cc1F (centres unmarked) [Compound 12, 3-(4-(4-(2-(4-(4-((5-(2,4-difluoro-5-methylphenyl)imdazo [1,2-a]pyridin-8-yl)amino)-1H-pyrazol-1-yl)piperidin-1-yl)ethyl)piperazin-1-yl)phenyl) piperidine-2,6-dione] | 14% | 3 nM
Cc1cc(-c2cnc(Nc3cnn([C@H]4CC[C@H](CCN5CCN(c6ccc([C@]7(C)CCC(=O)NC7=O)cc6)CC5)CC4)c3)c3nccn23)c(F)cc1F [Compound 82, (S)-3-(4-(4-(2-((trans)-4-(4-((5-(2,4-difluoro-5-methylphenyl)imidazo[1,2-a]pyrazin-8-yl)amino)-1H-pyrazol-1-yl)cyclohexyl)ethyl)piperazin-1-yl)phenyl)-3-methylpiperidine-2,6-dione] | 66% | 
Cc1cc(-c2cnc(Nc3cnn([C@H]4CC[C@@H](CN5CCN(c6ccc(C7CCC(=O)NC7=O)cc6)CC5)CC4)c3)c3nccn23)c(F)cc1F (relative stereo) [Compound 71, 3-(4-(4-(((cis)-4-(4-((5-(2,4-difluoro-5-methylphenyl)imidazo[1,2-a]pyrazin-8-yl)amino)-1H-pyrazol-1-yl)cyclohexyl)methyl)piperazin-1-yl)phenyl) piperidine-2,6-dione] | 29% | 1.7 nM
Cc1cccc(-c2cnc(Nc3cnn(C4CCN(CCCCN5CCN(c6ccc(C7CCC(=O)NC7=O)cc6)CC5)CC4)c3)c3nccn23)c1 (centres unmarked) [Compound 3, 3-(4-(4-(4-(4-(4-((5-(m-tolyl)imidazo[1,2-a]pyrazin-8-yl)amino)-1H-pyrazol-1-yl)piperidin-1-yl)butyl)piperazin-1-yl)phenyl) piperidine-2,6-dione] | 15% | 3 nM
Cc1cc(-c2cnc(Nc3cnn(C4CCN(CC(=O)N5CCN(c6ccc7c(c6)C(=O)N(C6CCC(=O)NC6=O)C7)CC5)CC4)c3)c3nccn23)c(F)cc1F (centres unmarked) [Compound 18, 3-(6-(4-(2-(4-(4-((5-(2,4-difluoro-5-methylphenyl)imidazo[1,2-a]pyrazin-8-yl)amino)-1H-pyrazol-1-yl)piperidin-1-yl)acetyl)piperazin-1-yl)-1-oxoisoindolin-2-yl)piperidine-2,6-dione] | 22% | 9.7 nM
Cc1cc(-c2cnc(Nc3cnn(C4CCN(CCN5CCN(c6ccc(C7CCC(=O)NC7=O)cc6)C[C@H]5C)CC4)c3)c3nccn23)c(F)cc1F (stereo partly drawn) [Compound 9, 3-(4-((R)-4-(2-(4-(4-((5-(2,4-difluoro-5-methylphenyl)imdazo [1,2-a]pyrazin-8-yl)amino)-1H-pyrazol-1-yl)piperidin-1-yl)ethyl)-3-methylpiperazin-1-yl)phenyl) piperidine-2,6-dione] | 14% | 0.5 nM
Cc1cccc(-c2cnc(Nc3cnn(C4CCN(CC(=O)N5CCN(c6ccc7c(c6)CN(C6CCC(=O)NC6=O)C7=O)CC5)CC4)c3)c3nccn23)c1 (centres unmarked) [Compound 19, 3-(1-oxo-5-(4-(2-(4-(4-((5-(m-tolyl)imidazo[1,2-a]pyrazin-8-yl)amino)-1H-pyrazol-1-yl)piperidin-1-yl)acetyl)piperazin-1-yl)isoindolin-2-yl)piperidine-2,6-dione] | 18% | 12 nM
O=C1CCC(c2ccc(N3CCN(CCN4CCC(n5cc(Nc6ncc(-c7ccc(F)cc7)n7ccnc67)cn5)CC4)CC3)cc2)C(=O)N1 (centres unmarked) [Compound 74, 3-(4-(4-(2-(4-(4-((5-(4-fluorophenyl)imidazo [1,2-a]pyrazin-8-yl)amino)-1H-pyrazol-1-yl)piperidin-1-yl)ethyl)piperazin-1-yl)phenyl) piperidine-2,6-dione] | 26% | 1 nM
Cc1cc(-c2cnc(Nc3cnn(C4CCN(CC(=O)N5CCN(c6ccc7c(c6)CN(C6CCC(=O)NC6=O)C7=O)CC5)CC4)c3)c3nccn23)c(F)cc1F (centres unmarked) [Compound 10, 3-(5-(4-(2-(4-(4-((5-(2,4-difluoro-5-methylphenyl)imidazo[1,2-a]pyrazin-8-yl)amino)-1H-pyrazol-1-yl)piperidin-1-yl)acetyl)piperazin-1-yl)-1-oxoisoindolin-2-yl)piperidine-2,6-dione] | 22% | 19 nM
Cc1cc(-c2cnc(Nc3cnn([C@H]4CCN(CCN5CCN(c6ccc(C7CCC(=O)NC7=O)cc6)C[C@H]5C)[C@@H](C)C4)c3)c3nccn23)c(F)cc1F (stereo partly drawn) [Compound 35, 3-(4-((R)-4-(2-((2S,4S)-4-(4-((5-(2,4-difluoro-5-methylphenyl)imdazo [1,2-a]pyrazin-8-yl)amino)-1H-pyrazol-1-yl)-2-methylpiperidin-1-yl)ethyl)-3-methylpiperazin-1-yl)phenyl) piperidine-2,6-dione] | 24% | 0.63 nM

Next, values leading:

IRAK3 ePL degradation Ymin | DC50 | SMILES
22% | 4 nM | Cc1cc(-c2cnc(Nc3cnn([C@H]4CC[C@H](CCN5CCN(c6ccc(C7CCC(=O)NC7=O)cc6)CC5)CC4)c3)c3nccn23)c(F)cc1F (stereo partly drawn) [Compound 11, 3-(4-(4-(2-((trans)-4-(4-((5-(2,4-difluoro-5-methylphenyl)imidazo[1,2-a]pyrazin-8-yl)amino)-1H-pyrazol-1-yl)cyclohexyl)ethyl)piperazin-1-yl)phenyl)piperidine-2,6-dione]
15% | 1.1 nM | Cc1cc(-c2cnc(Nc3cnn([C@H]4CC[C@@H](CCN5CCN(c6ccc(C7CCC(=O)NC7=O)cc6)CC5)CC4)c3)c3nccn23)c(F)cc1F (stereo partly drawn) [Compound 14, 3-(4-(4-(2-((cis)-4-(4-((5-(2,4-difluoro-5-methylphenyl)imidazo[1,2-a]pyrazin-8-yl)amino)-1H-pyrazol-1-yl)cyclohexyl)ethyl)piperazin-1-yl)phenyl) piperidine-2,6-dione]
27% | 3.3 nM | Cc1cc(-c2cnc(Nc3cnn([C@H]4CC[C@H](CCN5CCN(c6ccc([C@@]7(C)CCC(=O)NC7=O)cc6)CC5)CC4)c3)c3nccn23)c(F)cc1F [Compound 81, (R)-3-(4-(4-(2-((trans)-4-(4-((5-(2,4-difluoro-5-methylphenyl)imidazo[1,2-a]pyrazin-8-yl)amino)-1H-pyrazol-1-yl)cyclohexyl)ethyl)piperazin-1-yl)phenyl)-3-methylpiperidine-2,6-dione]
15% | 3 nM | Cc1cccc(-c2cnc(Nc3cnn(C4CCN(CCN5CCN(c6ccc7c(c6)C(=O)N(C6CCC(=O)NC6=O)C7=O)CC5)CC4)c3)c3nccn23)c1 (centres unmarked) [Compound 2, 2-(2,6-dioxopiperidin-3-yl)-5-(4-(2-(4-(4-((5-(m-tolyl)imidazo[1,2-a]pyrazin-8-yl)amino)-1H-pyrazol-1-yl)piperidin-1-yl)ethyl)piperazin-1-yl)isoindoline-1,3-dione]
44% | 38 nM | Cc1cc(-c2cnc(Nc3cnn(C4CCN(CCN5CCN(c6cccc(C7CCC(=O)NC7=O)c6)CC5)CC4)c3)c3nccn23)c(F)cc1F (centres unmarked) [Compound 31, 3-(3-(4-(2-(4-(4-((5-(2,4-difluoro-5-methylphenyl)imdazo [1,2-a]pyrazin-8-yl)amino)-1H-pyrazol-1-yl)piperidin-1-yl)ethyl)piperazin-1-yl)phenyl) piperidine-2,6-dione]
78% |  | Cc1cc(-c2cnc(Nc3cnn(C4CCN(CCN5CCN(c6ccc([C@]7(C)CCC(=O)NC7=O)cc6)CC5)CC4)c3)c3nccn23)c(F)cc1F [Compound 76, (S)-3-(4-(4-(2-(4-(4-((5-(2,4-difluoro-5-methylphenyl)imdazo [1,2-a]pyrazin-8-yl)amino)-1H-pyrazol-1-yl)piperidin-1-yl)ethyl)piperazin-1-yl)phenyl)-3-methylpiperidine-2,6-dione]
28% | 26 nM | O=C1CCC(c2ccc(N3CCN(CCN4CCC(n5cc(Nc6ncc(-c7cccc(F)c7)n7ccnc67)cn5)CC4)CC3)cc2)C(=O)N1 (centres unmarked) [Compound 80, 3-(4-(4-(2-(4-(4-((5-(3-fluorophenyl)imidazo [1,2-a]pyrazin-8-yl)amino)-1H-pyrazol-1-yl)piperidin-1-yl)ethyl)piperazin-1-yl)phenyl) piperidine-2,6-dione]
13% | 4 nM | Cc1cccc(-c2cnc(Nc3cnn(C4CCN(CCCN5CCN(c6ccc(C7CCC(=O)NC7=O)cc6)CC5)CC4)c3)c3nccn23)c1 (centres unmarked) [Compound 4, 3-(4-(4-(3-(4-(4-((5-(m-tolyl)imidazo[1,2-a]pyrazin-8-yl)amino)-1H-pyrazol-1-yl)piperidin-1-yl)propyl)piperazin-1-yl)phenyl) piperidine-2,6-dione]
13% | 0.86 nM | Cc1cc(-c2cnc(Nc3cnn(C4CCN(CCN5[C@H](C)CN(c6ccc(C7CCC(=O)NC7=O)cc6)C[C@@H]5C)CC4)c3)c3nccn23)c(F)cc1F (stereo partly drawn) [Compound 13, 3-(4-((3S,5R)-4-(2-(4-(4-((5-(2,4-difluoro-5-methylphenyl)imdazo [1,2-a]pyrazin-8-yl)amino)-1H-pyrazol-1-yl)piperidin-1-yl)ethyl)-3,5-dimethylpiperazin-1-yl)phenyl) piperidine-2,6-dione]
